Columns and labels:
[1] = molecular target: T1, HiBit-BRM fusion protein (Homo sapiens, UniProt P51531); experiment: HiBiT-BRM cell-based degradation assay (Nano-Glo HiBiT Lytic Detection, 24 h); details: HeLa cells expressing HiBiT-BRM; for DC50: read-out: BRM HiBit Degradation IC50; for BRM HiBit Degradation Maximum measured: top dose 30 μM
T1 construct: expressed in transfected cells
Outline: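 HeLa cells stably expressing HiBiT-BRM were dosed with compounds (10-point 3-fold dilutions, 30 μM final top dose, duplicate) for 24 h. HiBiT signal was read by lytic LgBiT complementation luminescence. Percent degradation was normalised to DMSO (high control) and 2 μM of a reference BRM/BRG1 degrader (low control).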

[2] = molecular target: T2, HiBit-BRG1 fusion protein (Homo sapiens, UniProt P51532); experiment: HiBiT-BRG1 cell-based degradation assay (Nano-Glo HiBiT Lytic Detection, 24 h); details: HeLa cells expressing HiBit-BRG1 and LgBit; for DC50: read-out: BRG1 HiBit Degradation IC50; for Dmax: HeLa, top dose 30 μM, read-out: BRG1 HiBit Degradation Maximum measured
T2 construct: expressed in transfected cells
T2 sequence (P51532 whole entry, the tested form may be a part): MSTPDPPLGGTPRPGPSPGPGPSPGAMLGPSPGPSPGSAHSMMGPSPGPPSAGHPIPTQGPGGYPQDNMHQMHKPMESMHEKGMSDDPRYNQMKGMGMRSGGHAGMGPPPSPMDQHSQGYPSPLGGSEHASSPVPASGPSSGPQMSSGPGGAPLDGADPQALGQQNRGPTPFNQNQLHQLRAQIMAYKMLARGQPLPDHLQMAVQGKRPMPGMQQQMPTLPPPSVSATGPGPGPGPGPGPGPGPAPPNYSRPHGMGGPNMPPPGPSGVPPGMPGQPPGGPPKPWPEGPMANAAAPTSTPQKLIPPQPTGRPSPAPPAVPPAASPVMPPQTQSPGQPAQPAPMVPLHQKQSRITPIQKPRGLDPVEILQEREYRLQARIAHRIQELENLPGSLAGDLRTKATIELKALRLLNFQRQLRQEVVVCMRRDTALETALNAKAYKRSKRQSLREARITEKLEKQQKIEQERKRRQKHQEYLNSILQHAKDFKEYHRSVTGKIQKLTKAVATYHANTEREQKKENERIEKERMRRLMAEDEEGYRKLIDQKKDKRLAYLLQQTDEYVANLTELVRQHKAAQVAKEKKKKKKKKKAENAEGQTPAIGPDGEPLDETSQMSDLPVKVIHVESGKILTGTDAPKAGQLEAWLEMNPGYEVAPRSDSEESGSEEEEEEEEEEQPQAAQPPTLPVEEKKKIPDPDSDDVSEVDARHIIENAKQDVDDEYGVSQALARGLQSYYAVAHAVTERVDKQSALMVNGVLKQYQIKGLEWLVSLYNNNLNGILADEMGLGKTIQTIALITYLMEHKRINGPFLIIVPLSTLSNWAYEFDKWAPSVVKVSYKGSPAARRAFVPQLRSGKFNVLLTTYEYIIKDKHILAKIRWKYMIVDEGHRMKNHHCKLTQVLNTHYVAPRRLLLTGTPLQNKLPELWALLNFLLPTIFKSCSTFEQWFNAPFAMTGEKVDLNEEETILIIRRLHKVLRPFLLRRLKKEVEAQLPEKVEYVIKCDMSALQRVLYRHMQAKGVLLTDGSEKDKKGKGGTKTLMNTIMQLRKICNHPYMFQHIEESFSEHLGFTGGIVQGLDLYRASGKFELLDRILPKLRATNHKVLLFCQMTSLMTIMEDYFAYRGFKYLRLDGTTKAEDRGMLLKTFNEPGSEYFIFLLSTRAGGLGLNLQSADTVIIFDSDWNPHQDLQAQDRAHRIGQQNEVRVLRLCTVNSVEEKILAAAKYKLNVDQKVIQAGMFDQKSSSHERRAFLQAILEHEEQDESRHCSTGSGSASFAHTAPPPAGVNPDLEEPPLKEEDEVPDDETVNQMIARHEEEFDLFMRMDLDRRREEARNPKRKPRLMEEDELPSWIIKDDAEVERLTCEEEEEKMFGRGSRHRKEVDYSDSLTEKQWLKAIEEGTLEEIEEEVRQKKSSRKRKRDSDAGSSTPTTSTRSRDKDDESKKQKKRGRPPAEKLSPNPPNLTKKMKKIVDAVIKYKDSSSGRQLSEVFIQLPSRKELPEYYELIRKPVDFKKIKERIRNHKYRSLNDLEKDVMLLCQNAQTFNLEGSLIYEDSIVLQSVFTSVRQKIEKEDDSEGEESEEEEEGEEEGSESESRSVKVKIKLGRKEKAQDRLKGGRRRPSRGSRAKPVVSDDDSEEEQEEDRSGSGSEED
Outline: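 Stable HeLa line expressing HiBiT-BRG1 and LgBiT, seeded at 5000 cells/well; luminescence read after lytic Nano-Glo HiBiT reagent and 10 min shaking at RT. % degradation normalised between DMSO (high control) and 2 μM reference BRM/BRG1 degrader (low control).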

T1 sequence (P51531 whole entry, the tested form may be a part): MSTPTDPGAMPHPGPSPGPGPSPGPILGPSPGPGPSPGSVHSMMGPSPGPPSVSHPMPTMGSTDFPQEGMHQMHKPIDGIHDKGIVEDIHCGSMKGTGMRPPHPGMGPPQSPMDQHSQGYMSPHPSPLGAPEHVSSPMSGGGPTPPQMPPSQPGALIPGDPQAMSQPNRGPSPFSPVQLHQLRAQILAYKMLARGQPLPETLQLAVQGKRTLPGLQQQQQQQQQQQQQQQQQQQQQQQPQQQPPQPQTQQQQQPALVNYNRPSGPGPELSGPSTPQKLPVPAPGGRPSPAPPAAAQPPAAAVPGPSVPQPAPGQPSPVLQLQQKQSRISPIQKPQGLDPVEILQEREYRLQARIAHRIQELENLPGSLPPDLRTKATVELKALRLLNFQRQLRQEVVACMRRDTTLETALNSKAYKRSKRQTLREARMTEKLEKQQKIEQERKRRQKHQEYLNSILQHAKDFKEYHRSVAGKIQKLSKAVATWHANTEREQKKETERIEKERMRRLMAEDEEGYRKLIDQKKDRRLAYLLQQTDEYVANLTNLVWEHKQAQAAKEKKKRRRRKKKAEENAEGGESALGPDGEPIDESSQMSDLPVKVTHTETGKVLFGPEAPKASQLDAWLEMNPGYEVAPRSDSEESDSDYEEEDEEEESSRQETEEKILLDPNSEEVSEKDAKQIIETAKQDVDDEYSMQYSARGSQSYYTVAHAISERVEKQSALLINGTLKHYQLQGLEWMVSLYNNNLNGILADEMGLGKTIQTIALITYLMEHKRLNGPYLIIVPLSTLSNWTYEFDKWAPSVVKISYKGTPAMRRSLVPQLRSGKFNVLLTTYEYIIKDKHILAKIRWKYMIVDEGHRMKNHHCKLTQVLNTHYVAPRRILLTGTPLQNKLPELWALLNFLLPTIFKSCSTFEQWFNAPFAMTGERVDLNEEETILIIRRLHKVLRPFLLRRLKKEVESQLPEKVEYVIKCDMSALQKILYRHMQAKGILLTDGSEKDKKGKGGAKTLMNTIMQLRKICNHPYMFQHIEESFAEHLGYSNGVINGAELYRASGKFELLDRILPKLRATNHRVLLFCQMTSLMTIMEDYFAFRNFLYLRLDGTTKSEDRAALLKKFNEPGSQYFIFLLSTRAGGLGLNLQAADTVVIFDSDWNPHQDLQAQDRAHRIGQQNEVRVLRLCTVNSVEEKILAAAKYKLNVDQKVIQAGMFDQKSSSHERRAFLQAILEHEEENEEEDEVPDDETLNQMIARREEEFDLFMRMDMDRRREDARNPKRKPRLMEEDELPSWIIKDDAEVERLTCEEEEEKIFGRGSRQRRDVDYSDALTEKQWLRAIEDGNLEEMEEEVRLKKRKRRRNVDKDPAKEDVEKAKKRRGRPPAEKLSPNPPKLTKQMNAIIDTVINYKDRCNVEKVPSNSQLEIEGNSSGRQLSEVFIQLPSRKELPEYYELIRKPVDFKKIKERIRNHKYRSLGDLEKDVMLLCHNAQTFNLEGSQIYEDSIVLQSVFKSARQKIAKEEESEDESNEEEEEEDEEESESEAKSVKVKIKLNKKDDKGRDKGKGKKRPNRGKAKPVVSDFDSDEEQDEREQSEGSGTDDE

Compound | DC50 [1] [µM] | BRM HiBit Degradation Maximum measured [1] | DC50 [2] [µM] | Dmax [2] [%]
Cc1ncsc1-c1ccc(CNC(=O)[C@@H]2C[C@@H](O)CN2C(=O)[C@@H](NC(=O)COCCOCC(=O)NCc2cccc(-c3cccc(-c4csc(NC(=O)CNC(=O)c5ccn(S(C)(=O)=O)c5)n4)c3)c2)C(C)(C)C)cc1 [Compound 44, N-(2-((4-(3′-((S)-12-((2S,4R)-4-hydroxy-2-((4-(4-methylthiazol-5-yl)benzyl)carbamoyl)pyrrolidine-1-carbonyl)-13,13-dimethyl-3,10-dioxo-5,8-dioxa-2,11-diazatetradecyl)-[1,1′-biphenyl]-3-yl)thiazol-2-yl)amino)-2-oxoethyl)-1-(methylsulfonyl)-1H-pyrrole-3-carboxamide] | 1 to 10 | B (‘B’ = Maximum degradation ≥50% and ≤75%) | 1 to 10 | > 75
CS(=O)(=O)n1ccc(C(=O)NCC(=O)Nc2nc(-c3cccc(-c4cccc(CNC(=O)CCOCCOCCNc5ccc6c(c5)C(=O)N(C5CCC(=O)NC5=O)C6=O)c4)c3)cs2)c1 (centres unmarked) [Compound 45, N-(2-((4-(3′-((3-(2-(2-((2-(2,6-dioxopiperidin-3-yl)-1,3-dioxoisoindolin-5-yl)amino)ethoxy)ethoxy)propanamido)-methyl)-[1,1′-biphenyl]-3-yl)thiazol-2-yl)amino)-2-oxoethyl)-1-(methylsulfonyl)-1H-pyrrole-3-carboxamide] | > 10 | C (‘C’ = Maximum degradation <50%) | > 10 | < 50
Cc1ncsc1-c1ccc(CNC(=O)[C@@H]2C[C@@H](O)CN2C(=O)[C@@H](NC(=O)CCCCCCCCCNC(=O)CN(C)c2cc(-c3cccc(-c4csc(NC(=O)CNC(=O)c5ccn(S(C)(=O)=O)c5)n4)c3)ccn2)C(C)(C)C)cc1 [Compound 47] | < 0.1 | B (‘B’ = Maximum degradation ≥50% and ≤75%) | < 0.1 | 50 to 75
Cc1ncsc1-c1ccc(CNC(=O)[C@@H]2C[C@@H](O)CN2C(=O)[C@@H](NC(=O)CCCCC(=O)NCc2cccc(-c3cccc(-c4csc(NC(=O)CNC(=O)c5ccn(S(C)(=O)=O)c5)n4)c3)c2)C(C)(C)C)cc1 [Compound 48, N1-((S)-1-((2S,4R)-4-hydroxy-2-((4-(4-methylthiazol-5-yl)benzyl)carbamoyl)pyrrolidin-1-yl)-3,3-dimethyl-1-oxobutan-2-yl)-N6-((3′-(2-(2-(1-(methylsulfonyl)-1H-pyrrole-3-carboxamido)acetamido)thiazol-4-yl)-[1,1′-biphenyl]-3-yl)methyl)adipamide] | > 10 | C (‘C’ = Maximum degradation <50%) | 1 to 10 | 50 to 75
Cc1ncsc1-c1ccc(CNC(=O)[C@@H]2C[C@@H](O)CN2C(=O)[C@@H](NC(=O)CCCCCCCC(=O)NCc2cccc(-c3cccc(-c4csc(NC(=O)CNC(=O)c5ccn(S(C)(=O)=O)c5)n4)c3)c2)C(C)(C)C)cc1 [Compound 49, N1-((S)-1-((2S,4R)-4-hydroxy-2-((4-(4-methylthiazol-5-yl)benzyl)carbamoyl)pyrrolidin-1-yl)-3,3-dimethyl-1-oxobutan-2-yl)-N9-((3′-(2-(2-(1-(methylsulfonyl)-1H-pyrrole-3-carboxamido)acetamido)thiazol-4-yl)-[1,1′-biphenyl]-3-yl)methyl)nonanediamide] | < 0.1 | A (‘A’ = Maximum degradation >75%) | < 0.1 | > 75
Cc1ncsc1-c1ccc(CNC(=O)[C@@H]2C[C@@H](O)CN2C(=O)[C@@H](NC(=O)CCCCCCC(=O)NCc2cccc(-c3cccc(-c4csc(NC(=O)CNC(=O)c5ccn(S(C)(=O)=O)c5)n4)c3)c2)C(C)(C)C)cc1 [Compound 50, N1-((S)-1-((2S,4R)-4-hydroxy-2-((4-(4-methylthiazol-5-yl)benzyl)carbamoyl)pyrrolidin-1-yl)-3,3-dimethyl-1-oxobutan-2-yl)-N8-((3′-(2-(2-(1-(methylsulfonyl)-1H-pyrrole-3-carboxamido)acetamido)thiazol-4-yl)-[1,1′-biphenyl]-3-yl)methyl)octanediamide] | 0.1 to 1 | A (‘A’ = Maximum degradation >75%) | 0.1 to 1 | > 75
CS(=O)(=O)n1ccc(C(=O)NCC(=O)Nc2nc(-c3cccc(-c4cccc(CNC(=O)CCCCCCCCCCNc5cccc6c5C(=O)N(C5CCC(=O)NC5=O)C6=O)c4)c3)cs2)c1 (centres unmarked) [Compound 51, N-[2-[[4-[3-[3-[[11-[[2-(2,6-dioxo-3-piperidyl)-1,3-dioxo-isoindolin-4-yl]amino]undecanoylamino]methyl]-phenyl]phenyl]thiazol-2-yl]amino]-2-oxo-ethyl]-1-methylsulfonyl-pyrrole-3-carboxamide] | > 10 | C (‘C’ = Maximum degradation <50%) | 0.1 to 1 | 50 to 75
CS(=O)(=O)n1ccc(C(=O)NCC(=O)Nc2nc(-c3cccc(-c4cccc(CNC(=O)CCCCCCCCCCNc5ccc6c(c5)C(=O)N(C5CCC(=O)NC5=O)C6=O)c4)c3)cs2)c1 (centres unmarked) [Compound 52] | > 10 | C (‘C’ = Maximum degradation <50%) | 0.1 to 1 | 50 to 75
CS(=O)(=O)n1ccc(C(=O)NCC(=O)Nc2nc(-c3cccc(-c4ccnc(C5(C(=O)NCCCCCCNc6ccc7c(c6)CN(C6CCC(=O)NC6=O)C7=O)CC5)c4)c3)cs2)c1 (centres unmarked) [Compound 53, N-(6-[[2-(2,6-dioxopiperidin-3-yl)-1-oxo-3H-isoindol-5-yl]amino]hexyl)-1-[4-[3-(2-[2-[(1-methanesulfonylpyrrol-3-yl)formamido]acetamido]-1,3-thiazol-4-yl)phenyl]pyridin-2-yl]cyclopropane-1-carboxamide] | < 0.1 | A (‘A’ = Maximum degradation >75%) | < 0.1 | > 75
CS(=O)(=O)n1ccc(C(=O)NCC(=O)Nc2nc(-c3cccc(-c4cccc(CNC(=O)CCCCCCCCNc5ccc6c(c5)C(=O)N(C5CCC(=O)NC5=O)C6=O)c4)c3)cs2)c1 (centres unmarked) [Compound 54, N-[2-[[4-[3-[3-[[9-[[2-(2,6-dioxo-3-piperidyl)-1,3-dioxo-isoindolin-5-yl]amino]nonanoylamino]methyl]-phenyl]phenyl]thiazol-2-yl]amino]-2-oxo-ethyl]-1-methylsulfonyl-pyrrole-3-carboxamide] | > 10 | C (‘C’ = Maximum degradation <50%) | > 10 | < 50
CS(=O)(=O)n1ccc(C(=O)NCC(=O)Nc2nc(-c3cccc(-c4cccc(CNC(=O)CCOCCOCCOc5ccc6c(c5)C(=O)N(C5CCC(=O)NC5=O)C6=O)c4)c3)cs2)c1 (centres unmarked) [Compound 55, N-[2-[[4-[3-[3-[[3-[2-[2-[2-(2,6-dioxo-3-piperidyl)-1,3-dioxo-isoindolin-5-yl]oxyethoxy]ethoxy]propanoylamino]-methyl]phenyl]phenyl]thiazol-2-yl]amino]-2-oxo-ethyl]-1-methylsulfonyl-pyrrole-3-carboxamide] | 0.1 to 1 | B (‘B’ = Maximum degradation ≥50% and ≤75%) | 0.1 to 1 | 50 to 75
